Earlier results as cited in US8791093B2, “Pharmaceutical delivery systems for treatment of substance abuse and other addictions” (priority 2009, dated 2014).

Key:
[1] = target: T1, ALDH-I (Homo sapiens, UniProt P05091)
T1 sequence (P05091 18-517): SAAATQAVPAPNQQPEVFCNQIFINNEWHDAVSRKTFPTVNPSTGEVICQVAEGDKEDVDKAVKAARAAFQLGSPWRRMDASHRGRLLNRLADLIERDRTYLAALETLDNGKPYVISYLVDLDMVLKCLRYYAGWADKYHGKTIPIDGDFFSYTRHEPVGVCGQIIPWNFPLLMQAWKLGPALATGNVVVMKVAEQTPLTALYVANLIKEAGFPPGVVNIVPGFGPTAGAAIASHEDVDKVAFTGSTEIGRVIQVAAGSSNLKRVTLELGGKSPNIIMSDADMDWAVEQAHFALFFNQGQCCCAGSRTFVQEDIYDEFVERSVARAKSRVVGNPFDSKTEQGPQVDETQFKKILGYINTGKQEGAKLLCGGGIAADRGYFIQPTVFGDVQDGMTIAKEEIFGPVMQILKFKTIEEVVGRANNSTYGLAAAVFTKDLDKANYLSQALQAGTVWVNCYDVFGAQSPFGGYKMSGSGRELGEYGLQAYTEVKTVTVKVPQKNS

[2] = target: T2, ALDH-II (Homo sapiens, UniProt P00352)
T2 sequence (P00352 1-501): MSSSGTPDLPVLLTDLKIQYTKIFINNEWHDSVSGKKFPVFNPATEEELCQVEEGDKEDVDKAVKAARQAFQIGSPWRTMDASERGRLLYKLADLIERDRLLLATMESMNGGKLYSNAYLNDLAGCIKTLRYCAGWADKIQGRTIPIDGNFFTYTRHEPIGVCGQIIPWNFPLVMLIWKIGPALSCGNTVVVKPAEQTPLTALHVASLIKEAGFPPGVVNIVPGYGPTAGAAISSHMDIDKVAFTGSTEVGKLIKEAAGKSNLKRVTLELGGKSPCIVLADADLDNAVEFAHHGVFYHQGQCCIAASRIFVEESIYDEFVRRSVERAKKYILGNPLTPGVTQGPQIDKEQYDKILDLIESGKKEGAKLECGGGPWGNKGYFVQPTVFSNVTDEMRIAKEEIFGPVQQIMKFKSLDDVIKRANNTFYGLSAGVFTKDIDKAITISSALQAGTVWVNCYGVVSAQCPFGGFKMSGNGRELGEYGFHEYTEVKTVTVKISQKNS

Compound: CCN(CC)C(=S)SSC(=S)N(CC)CC [Disulfiram, diethylcarbamothioylsulfanyl diethylaminomethanedithioate]
- inhibition of ALDH-I [1]: only slightly
- inhibition of ALDH-II [2]: potent irreversible inhibitor
